One may read the IC50 as the concentration needed to halve the response being measured.

The values that follow come from EP4752152A1, “STEROID COMPOUND, AND PREPARATION METHOD THEREFOR AND USE THEREOF” (Cholesgen (Shanghai) Co.Ltd., priority 2023, dated 2025).

The assay concerns SREBP pathway. Nature of the assay: SREBP luciferase reporter gene system (SRE-luciferase assay). To be noted: Huh-7/SRE-luc cells, sterol-deficient medium, 0.01-10 µM. Format: cell-based, human. The protocol:
Huh-7/SRE-luc cells were incubated in sterol-deficient medium (5% lipoprotein deficient serum, 2 µM lovastatin, 10 µM mevalonic acid) with corresponding concentrations of compounds for 16 hours. The Huh-7/SRE-luc cells were human hepatoma cell line Huh-7 stably expressing LDLR promotor-luciferase and green fluorescent protein (GFP). These cells were obtained by transfecting Huh-7 with pLDLR-promotor-luciferase and pEGFP-N1 plasmids, followed by screening under G418 antibiotic selection pressure. The Huh-7 cells were purchased from ATCC, the pLDLR-promotor-luciferase plasmid was obtained by molecular cloning methods, and the pEGFP-N1 plasmid was purchased from Addgene.
After compound treatment, the cells were lysed with lysis buffer (E397A, Promega). After the addition of luciferase substrate (E1500, Promega), the activity of SRE-driven luciferase was measured using a BioTek Synergy HTX microplate reader (including but not limited to this type of instrument). The fluorescence intensity of green fluorescent protein (EGFP) was also measured using the above BioTek microplate reader (including but not limited to this type of instrument) and served as an internal control. The ratio of SRE-driven luciferase activity divided by the fluorescence intensity of green fluorescent protein was used as an indicator of SREBP pathway activity. The test data for each test compound were analyzed using Prism software (with the DMSO-treated group as the reference to calculate the compound inhibition rate, fitted using the Prism log(inhibitor) vs. response--Variable slope (four-parameter) model, calculation formula: Y = Bottom + (Top - Bottom)/(1 + 10^((LogIC50 - X) × HillSlope))), to obtain the IC50 parameters of the compounds.
Using the method described in 1.1, the inhibitory effect of the compounds of the present disclosure on the SREBP pathway was tested. The concentration gradient for each compound was designed as 0.01, 0.03, 0.1, 0.3, 1.0, 3.0, and 10 µM, with the vehicle DMSO as the control.
(In a reporter assay the amount or activity of a reporter protein is the signal.)

With `COc1cc(F)ccc1/C(CCC[C@@H](C)[C@H]1CC[C@H]2[C@H]3[C@H](CC[C@]12C)[C@@]1(C)CC[C@H](O)[C@H](O)[C@@H]1CC3(F)F)=N/O` [Compound 157, [(1E,5R)-5-[(1R,3aS,3bS,5aR,6R,7S,9aR,9bS,11aR)-4,4-difluoro-6,7-dihydroxy-9a,11a-dimethylhexadecahydro-1H-cyclopenta[1,2-a]phenanthren-1-yl]-1-(4-fluoro-2-methoxyphenyl)hexylidene]hydroxylamine], the half-maximal inhibitory concentration (IC50) (Homo sapiens, Huh-7, 16 h) was 0.053 µM.
On the same count and under the same terms, in the case of `C[C@H](CCCC(O)c1c(F)cccc1F)[C@H]1CC[C@H]2[C@H]3[C@H](CC[C@]12C)[C@@]1(C)CC[C@H](O)[C@H](O)[C@@H]1CC3(F)F` (stereo partly drawn) [Compound 161, (1R,3aS,3bS,5aR,6R,7 S,9aR,9bS,11aR)-1-[(2R)-6-(2,6-Difluorophenyl)-6-hydroxyhexan-2-yl]-4,4-difluoro-9a,11a-dimethylhexadecahyd ro-1H-cyclopenta[1,2-a]phenanthrene-6,7-diol] it was 0.1 µM; in that of `COc1cc(F)c(C(O)CCC[C@@H](C)[C@H]2CC[C@H]3[C@H]4[C@H](CC[C@]23C)[C@@]2(C)CC[C@H](O)[C@H](O)[C@@H]2CC4(F)F)c(OC)c1` (stereo partly drawn) [Compound 182, (1R,3aS,3bS,5aR,6R,7 S,9aR,9bS,11aR)-4,4-Difluoro-1-[(2R)-6-(2-fluoro-4,6-dimethoxyphenyl)-6-hydroxyhexan-2-yl]-9a,11a-dimethylhexadecahydro-1H-cyclopenta[1,2-a]phenanthrene-6,7-diol], 0.121 µM; in that of `COc1cccc(F)c1[C@@H](F)CCC[C@@H](C)[C@H]1CC[C@H]2[C@H]3[C@H](CC[C@]12C)[C@@]1(C)CC[C@H](O)[C@H](O)[C@@H]1CC3(F)F` (single isomer, unassigned) [Compound 215], 3.57 µM.
On the same count and under the same terms, in the case of `C[C@H](CCCC(O)c1cccc2c1nnn2C)[C@H]1CC[C@H]2[C@H]3[C@H](CC[C@]12C)[C@@]1(C)CC[C@H](O)[C@H](O)[C@@H]1CC3(F)F` (single isomer, unassigned) [Compound 290, (1R,3aS,3bS,5aR,6R,7S,9aR,9bS,11aR)-4,4-difluoro-1-[(2R,6S)-6-hydroxy-6-(1-methylbenzo[d][1,2,3]triazol-4-yl)hexan-2-yl]-9a,11a-dimethylhexadecahydro-1H-cyclopenta[1,2-a]phenanthrene-6,7-diol or (1R,3aS,3bS,5aR,6R,7S,9aR,9bS,11aR)-4,4-difluoro-1-[(2R,6R)-6-hydroxy-6-(1-methylbenzo[d][1,2,3]triazol-4-yl)hexan-2-yl]-9a,11a-dimethylhexadecahydro-1H-cyclopenta[1,2-a]phenanthrene-6,7-diol] it was 0.137 µM; in that of `C[C@H](CCCC(O)c1cccc2nnn(C)c12)[C@H]1CC[C@H]2[C@H]3[C@H](CC[C@]12C)[C@@]1(C)CC[C@H](O)[C@H](O)[C@@H]1CC3(F)F` (stereo partly drawn) [Compound 271, (1R,3aS,3bS,5aR,6R,7 S,9aR,9bS,11aR)-4,4-Difluoro-1-[(2R)-6-hydroxy-6-(3-methylbenzo[d][1,2,3]triazol-4-yl)hexan-2-yl]-9a,11a-dimethylhexadecahyd ro-1H-cyclopenta[1,2-a]phenanthrene-6,7-diol], 0.207 µM.
As to `C[C@H](CCCC(O)c1cccc2cn[nH]c12)[C@H]1CC[C@H]2[C@H]3[C@H](CC[C@]12C)[C@@]1(C)CC[C@H](O)[C@H](O)[C@@H]1CC3(F)F` (single isomer, unassigned) [Compound 268, (1R,3aS,3bS,5aR,6R,7S,9aR,9bS,11aR)-4,4-difluoro-1-[(2R,6S)-6-hydroxy-6-(1H-indazol-7-yl)hexan-2-yl]-9a,11a-dimethylhexadecahydro-1H-cyclopenta[1,2-a]phenanthrene-6,7-diol or (1R,3aS,3bS,5aR,6R,7S,9aR,9bS,11aR)-4,4-difluoro-1-[(2R,6R)-6-hydroxy-6-(1H-indazol-7-yl)hexan-2-yl]-9a,11a-dimethylhexadecahydro-1H-cyclopenta[1,2-a]phenanthrene-6,7-diol], the IC50 (16 hours) turned out to be 0.141 µM.
In the case of `C[C@H](CCCC(O)c1ccc(F)nc1O)[C@H]1CC[C@H]2[C@H]3[C@H](CC[C@]12C)[C@@]1(C)CC[C@H](O)[C@H](O)[C@@H]1CC3(F)F` (stereo partly drawn) [Compound 276, (1R,3aS,3bS,5aR,6R,7S,9aR,9bS,11aR)-4,4-difluoro-1-[(2R)-6-(6-fluoro-2-hydroxypyridin-3-yl)-6-hydroxyhexan-2-yl]-9a,11a-dimethylhexadecahydro-1H-cyclopenta[1,2-a]phenanthrene-6,7-diol], for the setting “Homo sapiens, Huh-7, 16 h”, the IC50 was 0.925 µM.
Still for that read-out and setting: next, `COc1nc(F)ccc1C(C)(O)CCC[C@@H](C)[C@H]1CC[C@H]2[C@H]3[C@H](CC[C@]12C)[C@@]1(C)CC[C@H](O)[C@H](O)[C@@H]1CC3(F)F` (stereo partly drawn) [Compound 308, (1R,3aS,3bS,5aR,6R,7S,9aR,9bS,11aR)-4,4-difluoro-1-[(2R)-6-(6-fluoro-2-methoxypyridin-3-yl)-6-hydroxyheptan-2-yl]-9a,11a-dimethylhexadecahydro-1H-cyclopenta[1,2-a]phenanthrene-6,7-diol]: 0.112 µM; `COc1cc(F)cc(OC)c1C(O)CCC[C@@H](C)[C@H]1CC[C@H]2[C@H]3[C@H](CC[C@]12C)[C@@]1(C)CC[C@H](O)[C@H](O)[C@@H]1CC3(F)F` (single isomer, unassigned) [Compound 222, (1R,3aS,3bS,5aR,6R,7S,9aR,9bS,11aR)-4,4-difluoro-1-[(2R,6S)-6-(4-fluoro-2,6-dimethoxyphenyl)-6-hydroxyhexan-2-yl]-9a,11a-dimethylhexadecahydro-1H-cyclopenta[1,2-a]phenanthrene-6,7-diol or (1R,3aS,3bS,5aR,6R,7S,9aR,9bS,11aR)-4,4-difluoro-1-[(2R,6R)-6-(4-fluoro-2,6-dimethoxyphenyl)-6-hydroxyhexan-2-yl]-9a,11a-dimethylhexadecahydro-1H-cyclopenta[1,2-a]phenanthrene-6,7-diol]: 0.137 µM.
Take `COc1nc(C(O)CCC[C@@H](C)[C@H]2CC[C@H]3[C@H]4[C@H](CC[C@]23C)[C@@]2(C)CC[C@H](O)[C@H](O)[C@@H]2CC4(F)F)cs1` (single isomer, unassigned) [Compound 220, (1R,3aS,3bS,5aR,6R,7S,9aR,9bS,11aR)-4,4-difluoro-1-[(2R,6R)-6-hydroxy-6-(2-methoxy-1,3-thiazol-4-yl)hexan-2-yl]-9a,11a-dimethylhexadecahydro-1H-cyclopenta[1,2-a]phenanthrene-6,7-diol or (1R,3aS,3bS,5aR,6R,7S,9aR,9bS,11aR)-4,4-difluoro-1-[(2R,6S)-6-hydroxy-6-(2-methoxy-1,3-thiazol-4-yl)hexan-2-yl]-9a,11a-dimethylhexadecahydro-1H-cyclopenta[1,2-a]phenanthrene-6,7-diol]: the IC50 (16 hours) was found to be 0.04 µM.
Take `COc1cncc(F)c1C(O)CCC[C@@H](C)[C@H]1CC[C@H]2[C@H]3[C@H](CC[C@]12C)[C@@]1(C)CC[C@H](O)[C@H](O)[C@@H]1CC3(F)F` (single isomer, unassigned) [Compound 251, (1R,3aS,3bS,5aR,6R,7S,9aR,9bS,11aR)-4,4-difluoro-1-[(2R,6S)-6-(3-fluoro-5-methoxypyridin-4-yl)-6-hydroxyhexan-2-yl]-9a,11a-dimethylhexadecahydro-1H-cyclopenta[1,2-a]phenanthrene-6,7-diol or (1R,3aS,3bS,5aR,6R,7S,9aR,9bS,11aR)-4,4-difluoro-1-[(2R,6R)-6-(3-fluoro-5-methoxypyridin-4-yl)-6-hydroxyhexan-2-yl]-9a,11a-dimethylhexadecahydro-1H-cyclopenta[1,2-a]phenanthrene-6,7-diol]: under “Homo sapiens, Huh-7, 16 h”, the IC50 is 0.042 µM.
As for `C[C@H](CCCC(O)c1c(F)ccnc1F)[C@H]1CC[C@H]2[C@H]3[C@H](CC[C@]12C)[C@@]1(C)CC[C@H](O)[C@H](O)[C@@H]1CC3(F)F` (stereo partly drawn) [Compound 146, (1R,3aS,3bS,5aR,6R,7S,9aR,9bS,11aR)-1-[(2R)-6-(2,4-difluoropyridin-3-yl)-6-hydroxyhexan-2-yl]-4,4-difluoro-9a,11a-dimethylhexadecahydro-1H-cyclopenta[1,2-a]phenanthrene-6,7-diol], under “Homo sapiens, Huh-7, 16 h”, the IC50 came to 0.16 µM.
Still for that read-out and setting: in the case of `C[C@H](CCCC(O)c1ccc2c(c1)OC(F)(F)O2)[C@H]1CC[C@H]2[C@H]3[C@H](CC[C@]12C)[C@@]1(C)CC[C@H](O)[C@H](O)[C@@H]1CC3(F)F` (single isomer, unassigned) [Compound 258, (1R,3aS,3bS,5aR,6R,7S,9aR,9bS,11aR)-1-[(2R,6S)-6-(2,2-difluorobenzo[d][1,3]dioxol-5-yl)-6-hydroxyhexan-2-yl]-4,4-difluoro-9a,11a-dimethylhexadecahydro-1H-cyclopenta[1,2-a]phenanthrene-6,7-diol or (1R,3aS,3bS,5aR,6R,7S,9aR,9bS,11aR)-1-[(2R,6R)-6-(2,2-difluorobenzo[d][1,3]dioxol-5-yl)-6-hydroxyhexan-2-yl]-4,4-difluoro-9a,11a-dimethylhexadecahydro-1H-cyclopenta[1,2-a]phenanthrene-6,7-diol] it was 0.454 µM.
